Results reported in article PMC6009858, “Tricyclic coumarin sulphonate derivatives with alkaline phosphatase inhibitory effects: in vitro and docking studies” (Journal of Enzyme Inhibition and Medicinal Chemistry, 2018).

Assays:
[1] = molecular target: T1, human intestinal alkaline phosphatase (h-IAP) (Homo sapiens, UniProt P09923); test: Alkaline phosphatase inhibition assay (h-IAP), CDP-star luminescence; assay type: biochemical; details: for IC50: IC50 ± SEM, n = 3, DEA buffer
T1 sequence (P09923 20-528): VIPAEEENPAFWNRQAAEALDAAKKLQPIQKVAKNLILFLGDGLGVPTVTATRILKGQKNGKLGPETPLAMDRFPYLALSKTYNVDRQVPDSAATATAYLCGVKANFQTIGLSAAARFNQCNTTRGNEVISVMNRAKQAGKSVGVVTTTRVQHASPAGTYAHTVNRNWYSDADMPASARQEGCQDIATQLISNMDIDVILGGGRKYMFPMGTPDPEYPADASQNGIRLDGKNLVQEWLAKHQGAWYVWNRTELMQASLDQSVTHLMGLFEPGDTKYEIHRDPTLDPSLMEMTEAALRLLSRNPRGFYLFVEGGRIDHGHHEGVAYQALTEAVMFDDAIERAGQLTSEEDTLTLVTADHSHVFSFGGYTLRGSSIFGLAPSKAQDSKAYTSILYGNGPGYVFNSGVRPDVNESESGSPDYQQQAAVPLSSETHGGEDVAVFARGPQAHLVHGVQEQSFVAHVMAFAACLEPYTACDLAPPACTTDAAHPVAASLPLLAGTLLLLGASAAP
Protocol: (§1) The inhibition assay was performed by following the already reported method[18] and the inhibitory activity was measured at the final concentration of 200 µM in diethanolamine (DEA) buffer as discussed in our published article. The first step of the inhibition assay was the treatment of 10 µl of tested derivatives with 20 µl of h-TNAP (46 ng/well) or of h-IAP (57 ng/well). The plates were incubated at 37 °C for 5–10 min, and luminescence signals were recorded by microplate reader (BioTek FLx800, Instruments, Inc., Winooski, VT). Then, 20 µl of CDP-star® substrate was added to each reaction mixture and signals were again measured as after-read, after 15–20 min of incubation. The data were scrutinised by PRISM 5.0 (GraphPad, San Diego, CA) software and the inhibitory concentration values (IC50 values) were attained as discussed earlier.

[2] = molecular target: T2, human tissue nonspecific alkaline phosphatase (h-TNAP) (Homo sapiens, UniProt P05186); test: Alkaline phosphatase inhibition assay (h-TNAP), CDP-star luminescence; assay type: biochemical; details: for IC50: IC50 ± SEM, n = 3, DEA buffer; for selectivity h-TNAP over h-IAP (in words): h-TNAP versus h-IAP
T2 sequence (P05186 18-524): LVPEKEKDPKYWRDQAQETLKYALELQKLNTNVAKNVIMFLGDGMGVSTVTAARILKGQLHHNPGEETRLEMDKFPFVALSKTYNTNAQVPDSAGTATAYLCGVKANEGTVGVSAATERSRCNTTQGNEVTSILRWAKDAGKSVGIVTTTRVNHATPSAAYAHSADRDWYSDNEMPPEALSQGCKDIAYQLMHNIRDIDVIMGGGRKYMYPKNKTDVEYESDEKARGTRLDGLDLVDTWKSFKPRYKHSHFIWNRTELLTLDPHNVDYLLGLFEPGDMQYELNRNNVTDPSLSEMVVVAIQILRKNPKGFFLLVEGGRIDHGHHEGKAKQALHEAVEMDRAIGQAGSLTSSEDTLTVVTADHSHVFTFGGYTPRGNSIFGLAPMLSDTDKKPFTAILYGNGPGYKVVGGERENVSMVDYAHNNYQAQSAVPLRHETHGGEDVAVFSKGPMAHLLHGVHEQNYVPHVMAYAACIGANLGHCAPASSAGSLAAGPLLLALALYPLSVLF
Protocol: as §1, with “The plates were incubated at 37 °C for 5–10 min, and luminescence signals were recorded by microplate reader (BioTek FLx800, Instruments, Inc., Winooski, VT).” left out

colon cancer cell line = test system: colon cancer cell line; design: method as in PMID 24360561, PMID 25016229, PMID 27779319; details: previously reported data; cited from earlier work
[3] = design: method as in PMID 24360561, PMID 25016229, PMID 27779319; details: previously reported data; cited from earlier work

SMILES | IC50 [1] [µM] | IC50 [2] [µM] | further results
CS(=O)(=O)Oc1ccc2c3c(c(=O)oc2c1)CCCCC3 [Compound 1a] | 1.98 ± 0.19 | 0.48 ± 0.01 | –
CCS(=O)(=O)Oc1ccc2c3c(c(=O)oc2c1)CCCCC3 [Compound 1b] | 2.71 ± 0.23 | 2.13 ± 0.19 | –
CCCS(=O)(=O)Oc1ccc2c3c(c(=O)oc2c1)CCCCC3 [Compound 1c] | 0.91 ± 0.06 | 1.52 ± 0.17 | –
O=c1oc2cc(OS(=O)(=O)C3CC3)ccc2c2c1CCCCC2 [Compound 1d] | 0.96 ± 0.08 | 0.98 ± 0.13 | –
O=c1oc2cc(OS(=O)(=O)c3ccccc3)ccc2c2c1CCCCC2 [Compound 1e] | 1.84 ± 0.19 | 8.57 ± 0.73 | –
Cc1ccc(S(=O)(=O)Oc2ccc3c4c(c(=O)oc3c2)CCCCC4)cc1 [Compound 1f] | 1.94 ± 0.11 | 0.38 ± 0.01 | –
O=c1oc2cc(OS(=O)(=O)c3ccc(F)cc3)ccc2c2c1CCCCC2 [Compound 1i] | 0.45 ± 0.09 | 1.06 ± 0.11 | antiproliferative effect against colon cancer cell line (in words) (colon cancer cell line): strongest antiproliferative derivatives; melting point: 147 to 149 °C; anti-inflammatory effects (in words) [3]: maximum anti-inflammatory effects
CCS(=O)(=O)Oc1ccc2c3c(c(=O)oc2c1)CCCCCC3 [Compound 1j] | 0.84 ± 0.09 | 1.74 ± 0.14 | –
CCCS(=O)(=O)Oc1ccc2c3c(c(=O)oc2c1)CCCCCC3 [Compound 1k] | 3.37 ± 0.79 | 1.91 ± 0.11 | –
O=c1oc2cc(OS(=O)(=O)c3ccccc3)ccc2c2c1CCCCCC2 [Compound 1l] | 2.82 ± 0.82 | 1.13 ± 0.21 | –
Cc1ccc(S(=O)(=O)Oc2ccc3c4c(c(=O)oc3c2)CCCCCC4)cc1 [Compound 1m] | 2.12 ± 0.23 | 1.59 ± 0.16 | antiproliferative effect against colon cancer cell line (in words) (colon cancer cell line): strongest antiproliferative derivatives; anti-inflammatory effects (in words) [3]: maximum anti-inflammatory effects
COc1cc2c3c(c(=O)oc2cc1OS(C)(=O)=O)CCCCC3 [Compound 1o] | 11.8 ± 1.91 | 1.21 ± 0.11 | –

The next lines start with results.

IC50 [1] [µM] | IC50 [2] [µM] | SMILES | further results
1.51 ± 0.17 | 1.49 ± 0.13 | COc1cc2c3c(c(=O)oc2cc1OS(C)(=O)=O)CCCCCC3 [Compound 1p] | –
> 100 | 4.31 ± 0.99 | CCCS(=O)(=O)Oc1cc2oc(=O)c3c(c2cc1OC)CCCCC3 [Compound 1q] | selectivity h-TNAP over h-IAP (in words) [2]: selective inhibitors of h-TNAP
0.75 ± 0.07 | 2.6 ± 0.49 | CCCS(=O)(=O)Oc1cc2oc(=O)c3c(c2cc1OC)CCCCCC3 [Compound 1r] | –
3.88 ± 0.32 | 1.26 ± 0.07 | COc1cc2c3c(c(=O)oc2cc1OS(=O)(=O)c1ccccc1)CCCCC3 [Compound 1s] | –
0.83 ± 0.06 | 2.68 ± 0.18 | COc1cc2c3c(c(=O)oc2cc1OS(=O)(=O)c1ccccc1)CCCCCC3 [Compound 1t] | –
0.79 ± 0.05 | 1.65 ± 0.13 | COc1cc2c3c(c(=O)oc2cc1OS(=O)(=O)c1ccc(C)cc1)CCCCC3 [Compound 1u] | –
1.45 ± 0.04 | 0.64 ± 0.02 | COc1cc2c3c(c(=O)oc2cc1OS(=O)(=O)c1ccc(C)cc1)CCCCCC3 [Compound 1v] | –
> 100 | > 100 | COc1cc2c3c(c(=O)oc2cc1OS(=O)(=O)c1ccc(C(F)(F)F)cc1)CCCCC3 [Compound 1w] | –
1.63 ± 0.19 | 1.29 ± 0.12 | COc1cc2c3c(c(=O)oc2cc1OS(=O)(=O)c1ccc(C(F)(F)F)cc1)CCCCCC3 [Compound 1x] | –
> 100 | > 100 | CS(=O)(=O)Oc1cc2oc(=O)c3c(c2cc1Cl)CCCCC3 [Compound 1y] | activity towards h-IAP (in words) [1]: inactive
> 100 | 5.73 ± 1.06 | O=c1oc2cc(OS(=O)(=O)c3ccccc3)c(Cl)cc2c2c1CCCCC2 [Compound 1z] | activity towards h-IAP (in words) [1]: inactive; selectivity h-TNAP over h-IAP (in words) [2]: selective inhibitors of h-TNAP
1.11 ± 0.01 | 2.22 ± 0.27 | Cc1ccc(S(=O)(=O)Oc2cc3oc(=O)c4c(c3cc2Cl)CCCCC4)cc1 [Compound 1za] | –
100 | – | N[C@@H](Cc1ccccc1)C(=O)O [L-Phenylalanine, reference compound] | –
